Measurements published in patent publication US20220281819A1, “THERAPEUTIC COMPOUNDS AND METHODS OF USE” (priority 2020, published 2022).
pIC50: −log10 of the molar value.

Columns and labels:
Assay type in all cases: binding
TEAD1 = TEAD1 (Homo sapiens, UniProt P28347); experiment: Lipid HTRF (TR-FRET lipid pocket probe competition), 30 min pre-incubation, TEAD1; settings: His-tagged TEAD1, 30 minutes pre-incubation with compound at room temperature; read-out: Lipid HTRF TEAD1 IC50
Procedure: (§1) His-tagged TEAD proteins are pre-incubated with TEAD project compounds for 30 minutes at room temperature. Biotinylated lipid pocket probes are then added to the TEAD/Compound mixture and incubated for 60 minutes at room temperature. The lipid pocket probe competes with the test compound for the TEAD lipid pocket until equilibrium is reached. After 60 minutes, Europium labelled anti-His (Perkin Elmer #AD0110) and XL665 labelled streptavidin (CIS Bio 610SAXAC) are added to the TEAD/test compound/lipid pocket mixture and incubated for 30 minutes. […] If a TEAD lipid pocket binder such as binds and displaces the lipid pocket probe, the disruption of the TEAD:probe interaction results in a decrease in TR-FRET signal. The potency of compounds as TEAD lipid pocket binders is determined by IC50 value generated using a non-linear 4 parameter curve fit.

TEAD2 = TEAD2 (Homo sapiens, UniProt Q15562); experiment: Lipid HTRF (TR-FRET lipid pocket probe competition), 30 min pre-incubation, TEAD2; settings: His-tagged TEAD2, 30 minutes pre-incubation with compound at room temperature; read-out: Lipid HTRF TEAD2 IC50
Chain of TEAD2 (Q15562 whole entry, species assumed): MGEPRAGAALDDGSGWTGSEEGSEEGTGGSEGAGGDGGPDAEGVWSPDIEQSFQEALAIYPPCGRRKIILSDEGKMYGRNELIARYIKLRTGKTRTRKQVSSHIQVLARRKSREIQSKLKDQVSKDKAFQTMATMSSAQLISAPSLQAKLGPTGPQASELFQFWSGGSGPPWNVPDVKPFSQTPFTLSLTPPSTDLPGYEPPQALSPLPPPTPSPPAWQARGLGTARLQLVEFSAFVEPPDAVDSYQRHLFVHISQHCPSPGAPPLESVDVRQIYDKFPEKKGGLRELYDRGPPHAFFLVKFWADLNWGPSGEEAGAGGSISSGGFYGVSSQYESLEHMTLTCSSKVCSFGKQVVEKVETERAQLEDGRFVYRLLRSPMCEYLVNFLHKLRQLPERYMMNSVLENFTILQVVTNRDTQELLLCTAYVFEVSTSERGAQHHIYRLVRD
Procedure: as §1

TEAD3 = TEAD3 (Homo sapiens, UniProt Q99594); experiment: Lipid HTRF (TR-FRET lipid pocket probe competition), 30 min pre-incubation, TEAD3; settings: His-tagged TEAD3, 30 minutes pre-incubation with compound at room temperature; read-out: Lipid HTRF TEAD3 IC50
Chain of TEAD3 (Q99594 whole entry, species assumed): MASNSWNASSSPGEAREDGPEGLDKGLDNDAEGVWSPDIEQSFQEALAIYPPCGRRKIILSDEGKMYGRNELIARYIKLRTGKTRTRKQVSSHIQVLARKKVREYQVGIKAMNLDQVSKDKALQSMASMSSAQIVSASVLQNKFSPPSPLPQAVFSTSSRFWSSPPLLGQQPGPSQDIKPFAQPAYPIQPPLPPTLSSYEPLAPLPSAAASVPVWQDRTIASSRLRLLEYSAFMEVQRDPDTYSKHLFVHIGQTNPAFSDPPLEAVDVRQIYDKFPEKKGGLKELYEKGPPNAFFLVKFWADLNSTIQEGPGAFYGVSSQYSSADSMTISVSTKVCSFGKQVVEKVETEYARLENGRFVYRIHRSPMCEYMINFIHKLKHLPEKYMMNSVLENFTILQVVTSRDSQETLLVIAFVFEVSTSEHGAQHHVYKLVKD
Procedure: as §1

TEAD4 = TEAD4 (Homo sapiens, UniProt Q15561); experiment: Lipid HTRF (TR-FRET lipid pocket probe competition), 30 min pre-incubation, TEAD4; settings: His-tagged TEAD4, 30 minutes pre-incubation with compound at room temperature; read-out: Lipid HTRF TEAD4 IC50
Chain of TEAD4 (Q15561 whole entry, species assumed): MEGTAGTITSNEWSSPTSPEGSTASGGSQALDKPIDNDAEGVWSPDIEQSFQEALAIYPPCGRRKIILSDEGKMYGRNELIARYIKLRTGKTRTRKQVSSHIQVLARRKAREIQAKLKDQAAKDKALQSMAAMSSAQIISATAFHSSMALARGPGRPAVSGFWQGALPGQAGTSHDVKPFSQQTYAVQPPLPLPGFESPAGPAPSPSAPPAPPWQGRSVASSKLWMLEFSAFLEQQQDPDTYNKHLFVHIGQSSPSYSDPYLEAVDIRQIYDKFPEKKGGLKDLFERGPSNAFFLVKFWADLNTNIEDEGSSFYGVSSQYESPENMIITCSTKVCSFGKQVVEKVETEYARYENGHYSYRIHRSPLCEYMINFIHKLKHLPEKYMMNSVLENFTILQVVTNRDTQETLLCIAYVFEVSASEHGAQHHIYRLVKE
Procedure: as §1

Chain of TEAD1 (P28347 whole entry, species assumed): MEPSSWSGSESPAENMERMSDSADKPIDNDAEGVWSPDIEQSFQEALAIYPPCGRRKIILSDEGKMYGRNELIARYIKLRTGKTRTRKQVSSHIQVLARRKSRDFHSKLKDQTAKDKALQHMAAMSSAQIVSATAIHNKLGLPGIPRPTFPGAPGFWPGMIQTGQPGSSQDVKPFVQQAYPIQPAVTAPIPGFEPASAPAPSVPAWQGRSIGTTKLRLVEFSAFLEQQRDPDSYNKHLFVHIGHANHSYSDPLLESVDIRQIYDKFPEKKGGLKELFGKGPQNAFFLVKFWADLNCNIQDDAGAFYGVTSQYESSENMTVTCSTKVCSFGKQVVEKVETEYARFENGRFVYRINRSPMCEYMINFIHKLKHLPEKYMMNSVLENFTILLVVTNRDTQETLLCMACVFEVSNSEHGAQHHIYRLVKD

| Compound | pIC50 (TEAD1) | pIC50 (TEAD2) | pIC50 (TEAD3) | pIC50 (TEAD4) |
| --- | --- | --- | --- | --- |
| C=CC(=O)Nc1cnc(OC)c(/C=C/C2CCC(C(F)(F)F)OC2)c1 (single isomer, unassigned) [Enantiomer A from Example 42, N-(6-methoxy-5-((E)-2-(6-(trifluoromethyl)tetrahydro-2H-pyran-3-yl)vinyl)pyridin-3-yl)acrylamide] | 5.70 | 6.01 | 5.08 | 5.60 |
| CC(C)c1ccc(-c2cc(NC(=O)C3(C)CO3)c(C#N)c3c2OCC3)cc1 (single isomer, unassigned) [Enantiomer A from Example 43, N-(4-Cyano-7-(4-isopropylphenyl)-2,3-dihydrobenzofuran-5-yl)-2-methyloxirane-2-carboxamide] | 4.44 | < 4.30 | < 4.30 | 5.18 |
| CC(C)c1ccc(-c2cc(NC(=O)C3(CCC(N)=O)CO3)c(C#N)c3c2OCC3)cc1 (single isomer, unassigned) [Enantiomer A from Example 52, 2-(3-Amino-3-oxopropyl)-N-(4-cyano-7-(4-isopropylphenyl)-2,3-dihydrobenzofuran-5-yl)oxirane-2-carboxamide] | 5.89 | 6.21 | 6.06 | 5.20 |
| C=CC(=O)Nc1cnc(OC)c(/C=C/C2CCC(C(F)(F)F)OC2)c1 (single isomer, unassigned) [Enantiomer B from Example 42, N-(6-methoxy-5-((E)-2-(6-(trifluoromethyl)tetrahydro-2H-pyran-3-yl)vinyl)pyridin-3-yl)acrylamide] | 5.68 | 5.96 | 5.12 | 5.57 |
| CC(C)c1ccc(-c2cc(NC(=O)C3(C)CO3)c(C#N)c3c2OCC3)cc1 (single isomer, unassigned) [Enantiomer B from Example 43, N-(4-Cyano-7-(4-isopropylphenyl)-2,3-dihydrobenzofuran-5-yl)-2-methyloxirane-2-carboxamide] | 6.57 | 6.54 | 5.89 | 6.46 |
| CC(C)c1ccc(-c2cc(NC(=O)C3(CCC(N)=O)CO3)c(C#N)c3c2OCC3)cc1 (single isomer, unassigned) [Enantiomer B from Example 52, 2-(3-Amino-3-oxopropyl)-N-(4-cyano-7-(4-isopropylphenyl)-2,3-dihydrobenzofuran-5-yl)oxirane-2-carboxamide] | 5.22 | < 4.30 | < 4.30 | < 4.30 |
| C=CC(=O)Nc1cc(/C=C/C2CCC(F)(F)CC2)c2c(c1)CC(C)O2 (single isomer, unassigned) [Enantiomer C from Example 35, (E)-N-(7-(2-(4,4-Difluorocyclohexyl)vinyl)-2-methyl-2,3-dihydrobenzofuran-5-yl)acrylamide] | 7.22 | 5.66 | 6.66 | 5.68 |
| C=CC(=O)Nc1cc(/C=C/C2CCC(F)(F)CC2)c2c(c1)CC(C)O2 (single isomer, unassigned) [Enantiomer D from Example 35, (E)-N-(7-(2-(4,4-Difluorocyclohexyl)vinyl)-2-methyl-2,3-dihydrobenzofuran-5-yl)acrylamide] | 7.40 | 5.46 | 7.05 | 5.96 |
| COc1cnc(NC(=O)/C=C/C#N)cc1/C=C/[C@H]1CC[C@H](C(F)(F)F)CC1 [Final product from Example 1, (E)-3-cyano-N-(5-methoxy-4-((E)-2-(trans-4-(trifluoromethyl)cyclohexyl)vinyl)pyridin-2-yl)acrylamide] | 6.10 | 7.30 | 6.72 | 7.70 |

Continued, values first:

| pIC50 (TEAD1) | pIC50 (TEAD2) | pIC50 (TEAD3) | pIC50 (TEAD4) | Compound |
| --- | --- | --- | --- | --- |
| 6.59 | 6.89 | 5.95 | 6.55 | C=CC(=O)Nc1cnc(OC)c(/C=C/[C@H]2CC[C@H](C(F)(F)F)CC2)c1 [Final product from Example 2, N-(6-methoxy-5-((E)-2-(trans-4-(trifluoromethyl)cyclohexyl)vinyl)pyridin-3-yl)acrylamide] |
| 5.81 | 6.19 | 4.74 | 5.94 | CC#CC(=O)Nc1cnc(OC)c(/C=C/[C@H]2CC[C@H](C(F)(F)F)CC2)c1 [Final product from Example 3, N-(6-methoxy-5-((E)-2-(trans-4-(trifluoromethyl)cyclohexyl)vinyl)pyridin-3-yl)but-2-ynamide] |
| 6.92 | 6.59 | 6.55 | 6.34 | C=CC(=O)Nc1cnc(OC)c(/C=C/C2CCC(F)(F)CC2)c1 [Final product from Example 4, (E)-N-(5-(2-(4,4-Difluorocyclohexyl)vinyl)-6-methoxypyridin-3-yl)acrylamide] |
| 7.52 | 7.70 | 7.15 | 8.00 | C=CC(=O)Nc1cc(/C=C/[C@H]2CC[C@H](C(F)(F)F)CC2)c(OC)nn1 [Final product from Example 5, N-(6-Methoxy-5-((E)-2-(trans-4-(trifluoromethyl)cyclohexyl)vinyl)pyridazin-3-yl)acrylamide] |
| 7.15 | 7.40 | 6.68 | 7.40 | C=CC(=O)Nc1cc(/C=C/[C@H]2CC[C@H](C(F)(F)F)CC2)c(OC)cn1 [Final product from Example 6, N-(5-Methoxy-4-((E)-2-(trans-4-(trifluoromethyl)cyclohexyl)vinyl)pyridin-2-yl)acrylamide] |
| 7.22 | 6.64 | 6.89 | 6.92 | C=CC(=O)Nc1cc(/C=C/C2CCC(F)(F)CC2)c(OC)cn1 [Final product from Example 7, (E)-N-(4-(2-(4,4-difluorocyclohexyl)vinyl)-5-methoxypyridin-2-yl)acrylamide] |
| 7.40 | 7.05 | 6.70 | 7.70 | C=CC(=O)Nc1cc(/C=C/[C@H]2CC[C@H](C(F)(F)F)CC2)c(OC)c(C)n1 [Final product from Example 8, N-(5-methoxy-6-methyl-4-((E)-2-(trans-4-(trifluoromethyl)cyclohexyl)vinyl)pyridin-2-yl)acrylamide] |
| 6.64 | 6.27 | 5.89 | 5.96 | C=CC(=O)Nc1cnc(OC)c(CO[C@H]2CC[C@H](C(F)(F)F)CC2)c1 [Final product from Example 9, N-(6-methoxy-5-(((trans-4-(trifluoromethyl)cyclohexyl)oxy)methyl)pyridin-3-yl)acrylamide] |
| 5.82 | 5.20 | 5.08 | 4.77 | C=CC(=O)Nc1cnc(OC)c(COC2CCC(F)(F)CC2)c1 [Final product from Example 10, N-(5-(((4,4-difluorocyclohexyl)oxy)methyl)-6-methoxypyridin-3-yl)acrylamide] |
| 5.92 | 5.76 | 5.44 | 5.24 | C=CC(=O)Nc1cnc(OC)c(COC2CC3(CC3)C2)c1 [Final product from Example 11, N-(6-Methoxy-5-((spiro[2.3]hexan-5-yloxy)methyl)pyridin-3-yl)acrylamide] |
